The test system of experiment [1] is women with recurrent endometriosis after surgery. Put plainly: Example 1: clinical comparison of single-dose degarelix with monthly leuprolide acetate in recurrent endometriosis. The class given is in vivo. To be noted: for Disappearance of pain: degarelix acetate 80 mg single s.c. injection vs leuprolide acetate 3.75 mg s.c. monthly, 15 patients per group; for Disappearance of symptoms at the end of treatment / Recurrence six months after the end of treatment / CA-125 after 2 months / CA-125 at the end of treatment: degarelix acetate 80 mg single s.c. vs leuprolide acetate 3.75 mg s.c. monthly; for CA-125 after 2 months / CA-125 at the end of treatment: plasma. On the procedure:
In this experiment the use of degarelix was studied, administered in a dose of 80 mg in a single infusion, with an effect which lasted for at least 4 months (period of amenorrhea and hypoestrogenism), comparing this with the effect of treatment with leuprolide acetate GnRH-agonist administered in a dose of 3.75 mg per month for at least 6 months in women with recurrent endometriosis after surgery and post-surgery treatment with estro-progestins. 30 women divided into two groups of 15 patients each, with recurrent endometriosis after previous surgery for endometriotic cysts, in whom new ovarian cysts, pelvic pain and a rise in plasma CA125 values occurred, were included in the study. One group of patients was treated with 80 mg degarelix acetate in a single subcutaneous injection (Firmagon 80 mg, company Ferring) on the first day of the menstrual cycle, while the other group was treated with leuprolide acetate (Enantone 3.75, Takeda) in a dose of 3.75 mg subcutaneously every month for four months. Both the groups were monitored for FSH, LH, estradiol, androstenedione, dehydroandrostenedione (DEA) and CA125, with plasma doses every fifteen days starting from the day following administration of the drug. Pelvic pain levels experienced by the patients during treatment and during the six months following suspension of the treatment were also evaluated using a “Visual Analogue Scale” (VAS) in which the patient expressed the level of pain experienced on a 10 cm scale.

The subject of experiment [2] is patients suffering from endometriosis with bilateral ovarian cysts. Put plainly: Example 2: degarelix before assisted reproduction in patients with bilateral endometriotic ovarian cysts. The experiment is classed as in vivo. On the procedure:
In this experiment, 12 patients suffering from endometriosis with the presence of bilateral ovarian cysts who wished to receive a cycle of assisted reproduction underwent, prior to undergoing controlled ovarian hyperstimulation, treatment with 80 mg degarelix acetate in a single administration 4 months before the assisted reproduction cycle, in order to evaluate the efficacy of this treatment on the reduction and/or disappearance of the ovarian cysts without performing surgery. 12 patients with bilateral endometriotic cysts (cysts larger than 3 cm) and high plasma CA125 (over 60 IU/ml) were selected. 80 mg degarelix acetate (Firmagon 80 mg) was injected into the patients on the first day of the cycle and the patients were then monitored for FSH, LH and estradiol values every 20 days, with an echography check to evaluate the dimensions of the cysts.

The subject of experiment [3] is patients with severe endometriosis. The settings on record: 80 mg monthly for three months; cited from earlier work.
In a further experiment the test system is healthy women volunteers. To be noted: injection of 2.5 mg; cited from earlier work.
Where [4] appears, read: 80 mg single dose vs leuprolide acetate, P<0.01.

In the case of `CCNC(=O)[C@@H]1CCCN1C(=O)[C@H](CCCNC(=N)N)NC(=O)[C@H](CC(C)C)NC(=O)[C@@H](CC(C)C)NC(=O)[C@H](Cc1ccc(O)cc1)NC(=O)[C@H](CO)NC(=O)[C@H](Cc1c[nH]c2ccccc12)NC(=O)[C@H](Cc1c[nH]cn1)NC(=O)[C@@H]1CCC(=O)N1` [Leuprolide acetate, leuprolide acetate], in experiment [1], the Disappearance of pain turned out to be 3.8 ± 0.8, the “Disappearance of symptoms at the end of treatment” value is 60.0%, the “Recurrence six months after the end of treatment” value came to 33.3% and the “CA-125 after 2 months” value worked out at 52.6 ± 31.5. Besides, the “CA-125 at the end of treatment” value in experiment [1] is given as 34.0 ± 12.7.

In the case of degarelix acetate, the “Volume of the endometriotic cysts” value in experiment [2] (80 mg single administration, 3 months after treatment, echography) was “decreased significantly”. In addition, the “Levels of FSH, LH and estradiol 3 months after treatment (FIG. 6)” value in experiment [2] (80 mg single administration, 12 patients) is “low levels”. In experiment [2] (80 mg single administration, of 12 patients), the “Patients with complete disappearance of endometriotic cysts” value is listed as “at least 4 patients”. This compound had a Pregnancy achieved in experiment [2] (after 80 mg single administration and assisted reproduction cycle, of 12 patients) of 5 cases. The “Recurrence of endometriotic cysts during ovarian stimulation with oocyte sampling” value in experiment [2] (after 80 mg single administration, all patients) is given as “without showing any recurrence of endometriotic cysts”. Further, in experiment [1] (80 mg in a single infusion), the “Duration of effect (period of amenorrhea and hypoestrogenism)” value was “at least 4 months”. Further, the “Control of painful symptoms (VAS) compared with GnRH agonist (FIG. 5)” value in experiment [1] (80 mg single dose vs leuprolide acetate) was “better control of painful symptoms”. Moreover, in experiment [1] (setting [4]), the “Estradiol and androgen levels compared with GnRH agonist (FIGS. 2-4)” value was “lower levels of estradiol”; the “Suppression of LH and FSH compared with GnRH agonist (FIG. 1)” value was “More rapid and stable suppression of LH and FSH”. Also, in experiment [1], the Disappearance of pain is on record as 1.4 ± 0.3, the “Disappearance of symptoms at the end of treatment” value is 93.3%, the “Recurrence six months after the end of treatment” value was 6.6% and the “CA-125 after 2 months” value worked out at 32.4 ± 21.4. In experiment [1], the “CA-125 at the end of treatment” value is 12.6 ± 10.1. Also, the “Duration of stable suppression of FSH, LH, estradiol and androgen levels” value in experiment [1] (single administration of 80 mg) is on record as 4 months. Besides, the “Effect on pain and endometriosis recurrence” value in experiment [3] is “reduction of pain and endometriosis recurrence”. Moreover, in the experiment with healthy women volunteers, the “Effect on LH and FSH release” value is “immediate suppression of LH and FSH release”; the “Time required for LH and FSH to return to base levels” value is listed as “approximately 7 days”.

(Values after patent US9463213B2, “Use of degarelix in the treatment of endometriosis and related diseases” (priority 2012, dated 2016).)
